Where “and” joins values, the source holds several entries; their conditions need not be identical. Equal values may be shown once.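 Compound exposure: 48 hours, 5 concentrations, 96-well plates. GI50: concentration for 50% inhibition of growth. TGI is the concentration that stops growth completely.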
Key:
Assay in all cases: NCI tumour cell line growth inhibition, 48 h
A498 renal = system: A498 renal
HCT-116 colon = system: HCT-116 colon
SN12C renal = system: SN12C renal
K-562 leukemia = system: K-562 leukemia
HT29 colon = system: HT29 colon
HS 578T breast = system: HS 578T breast
NCI-H460 lung = system: NCI-H460 lung
MCF7 breast = system: MCF7 breast
BT-549 breast = system: BT-549 breast
SNB-19 CNS = system: SNB-19 CNS

Structure (SMILES) | TGI (A498 renal) | TGI (HCT-116 colon) | TGI (SN12C renal) | TGI (K-562 leukemia) | TGI (HT29 colon) | TGI (HS 578T breast) | TGI (NCI-H460 lung) | TGI (MCF7 breast) | TGI (BT-549 breast) | TGI (SNB-19 CNS) | GI50 (K-562 leukemia) | GI50 (HT29 colon) | GI50 (BT-549 breast)
NC(=O)N/N=C(/CC1C(=O)Oc2ccccc21)c1ccccc1O (configuration not stated) | > 100 µM | > 100 µM | > 100 µM | > 100 µM | > 100 µM | > 100 µM | > 100 µM | > 100 µM | > 100 µM | > 100 µM | – | – | –
O=C(O)C(O)C(O)C(=O)O (configuration not stated) | > 100 µM | > 100 µM | > 100 µM | > 100 µM | > 100 µM | > 100 µM | > 100 µM | > 100 µM | > 100 µM | > 100 µM | – | – | –
COC(CN(C(C)=O)C1CCC2(SCCS2)c2[nH]c3ccccc3c21)OC (configuration not stated) | > 100 µM | > 100 µM | > 100 µM | > 100 µM | > 100 µM | > 100 µM | > 100 µM | > 100 µM | > 100 µM | > 100 µM | – | – | –
O=C1C(Br)=C(c2ccccc2)O/C1=C/C(=O)c1ccc(Br)cc1 | > 100 µM | > 100 µM | 26.9 µM | > 100 µM | > 100 µM | > 100 µM | > 100 µM | > 100 µM | 25.5 µM | > 100 µM | – | – | –
[N-]=[N+]=NC1OC(=O)C(Cl)=C1N=P(c1ccccc1)(c1ccccc1)c1ccccc1 (configuration not stated) | > 10 µM | > 10 µM | > 10 µM | > 10 µM | – | > 10 µM | > 10 µM | > 10 µM | > 10 µM | > 10 µM | – | – | –
Cc1cc2/c(=C\c3ccc(N(C)C)cc3)c3ccccc3n2[n+]1C | 9.33 µM | 2.55 µM | 1.65 µM | 21.4 µM | 9.03 µM | 8.95 µM | 2.02 µM | 6.55 µM | 5.99 µM | 4.52 µM | – | – | –
CCOC(=O)C1=C(O)C2C3CC4C2C(O)=C(C(=O)OCC)C2C1C3C42 (configuration not stated) | > 100 µM | > 100 µM | > 100 µM | > 100 µM | > 100 µM | > 100 µM | > 100 µM | > 100 µM | > 100 µM | > 100 µM | – | – | –
COc1c(/C=C/C(C)(C)O)cc(C2CC(=O)c3c(O)cc(O)cc3O2)cc1CC=C(C)C (configuration not stated) | 16.8 µM | 18.4 µM | 14.3 µM | 35.7 µM | 16.7 µM | 24.9 µM | 16.5 µM | 15.3 µM | 15.8 µM | 18.6 µM | – | – | –
CN(C(=O)Cc1ccccc1)n1cnn(CC(=O)OC(C)(C)C)c1=S | > 10 µM | > 10 µM | > 10 µM | > 10 µM | > 10 µM | > 10 µM | > 10 µM | > 10 µM | > 10 µM | > 10 µM | – | – | –
Cc1ccc(/C=N/n2c(-c3ccc(C)cc3)n[nH]c2=O)cc1 | 95.1 µM | > 100 µM | > 100 µM | > 100 µM | > 100 µM | > 100 µM | > 100 µM | > 100 µM | > 100 µM | > 100 µM | – | – | –
O=C(c1nc2ccc([N+](=O)[O-])cc2[nH]c1=O)C(O)c1ccc2c(c1)OCO2 (configuration not stated) | > 100 µM | > 100 µM | > 100 µM | > 100 µM | > 100 µM | > 100 µM | > 100 µM | > 100 µM | > 100 µM | > 100 µM | – | – | –
Cc1ccc(SC2C(=O)C3CC(OCc4ccccc4)C2(C)C3(C)C)cc1 (configuration not stated) | > 100 µM | > 100 µM | > 100 µM | > 100 µM | > 100 µM | > 100 µM | > 100 µM | > 100 µM | > 100 µM | > 100 µM | – | – | –
COc1cc2c(cc1OC)C(=O)N(c1ccc(O)cc1)C2=O | > 100 µM | > 100 µM | > 100 µM | > 100 µM | > 100 µM | > 100 µM | > 100 µM | > 100 µM | > 100 µM | > 100 µM | – | – | –
COC(=O)C1Cc2cc3c(cc2C1=O)CCCC3 (configuration not stated) | > 100 µM | > 100 µM | > 100 µM | > 100 µM | > 100 µM | > 100 µM | > 100 µM | > 100 µM | > 100 µM | > 100 µM | – | – | –
CC[C@@]1(O)C(=O)OCc2c1cc1n(c2=O)Cc2c-1nc1ccccc1c2/C=N\NC(=O)C1CCCN1 (some centres not stated) | 2.58 µM | 21.2 µM | > 48.2 µM | > 100 µM | > 100 µM | > 100 µM | 10.5 µM | 18.4 µM | > 100 µM | 2.5 µM | – | – | –
CCN(CC)CCCNc1ccc2nc(C)n3c4ccc(O)cc4c(=O)c1c23 | 24.5 µM | 11.1 µM | 18.7 µM | 37.2 µM | 14.2 µM | 29 µM | 12.1 µM | 17.6 µM | 25.6 µM | 22 µM | – | – | –

Structure (SMILES) | TGI (A498 renal) | TGI (HCT-116 colon) | TGI (SN12C renal) | TGI (K-562 leukemia) | TGI (HT29 colon) | TGI (HS 578T breast) | TGI (NCI-H460 lung) | TGI (MCF7 breast) | TGI (BT-549 breast) | TGI (SNB-19 CNS) | GI50 (K-562 leukemia) | GI50 (HT29 colon) | GI50 (BT-549 breast)
CC(C)(C)OC(=O)N(CCCCNC(=O)OCc1ccccc1)CCCNC(=O)OCc1ccccc1 | > 100 µM | > 100 µM | > 100 µM | > 100 µM | > 100 µM | > 100 µM | > 100 µM | > 100 µM | > 100 µM | > 100 µM | – | – | –
COc1ccc2nc(-c3ccccc3)cc(OCC(=O)O)c2c1 | > 100 µM | > 100 µM | > 100 µM | > 100 µM | > 100 µM | > 100 µM | > 100 µM | > 100 µM | > 100 µM | > 100 µM | – | – | –
O=C(NCCN1CCOCC1)c1cn2c(ccc3sc4ccccc4c(=O)c32)n1 | > 100 µM | 29 µM | > 100 µM | > 100 µM | 25.6 µM | 47.3 µM | 18.3 µM | > 100 µM | > 100 µM | > 100 µM | – | – | –
O=C(/C=C/c1cccc(Oc2ccccc2)c1)NCc1ccc(C(=O)NCc2ccccc2)cc1 | > 100 µM | > 100 µM | > 100 µM | > 100 µM | > 100 µM | > 100 µM | > 100 µM | > 100 µM | > 100 µM | > 100 µM | – | – | –
CC(NC(=O)NC(C)(C)C)NC(=O)C(N)CC(=O)O (configuration not stated) | > 100 µM | > 100 µM | > 100 µM | > 100 µM | > 100 µM | > 100 µM | > 100 µM | > 100 µM | > 100 µM | > 100 µM | – | – | –
CC(C)(C)OC(=O)NC1CC2(C=C(Br)C(=O)C(Br)=C2)OC1=O (configuration not stated) | 47.4 µM | 9.21 µM | 18.5 µM | 13.5 µM | 18.6 µM | 51.3 µM | 38.5 µM | 31.6 µM | 30.3 µM | 38.6 µM | – | – | –
CN1C/C(=C\c2cccs2)C(O)/C(=C/c2cccs2)C1 (configuration not stated) | > 100 µM | > 100 µM | > 100 µM | > 100 µM | > 100 µM | > 100 µM | > 100 µM | > 100 µM | > 100 µM | > 100 µM | – | – | –
COc1ccc(-n2[nH]nc(C(N)=O)c2=O)cc1 | > 100 µM | > 100 µM | > 100 µM | > 100 µM | > 100 µM | > 100 µM | > 100 µM | > 100 µM | > 100 µM | > 100 µM | – | – | –
C=C(C(=O)O)[C@@H]1C[C@@H]2O[C@H]1[C@@H](O)[C@@H](C)CCCC(C)=CCC[C@@]2(C)O | > 100 µM | > 100 µM | > 100 µM | > 100 µM | > 100 µM | > 100 µM | > 100 µM | > 100 µM | > 100 µM | > 100 µM | 32.3 µM and 83.5 µM | 32.4 µM and > 100 µM | 33.5 µM and > 100 µM
Cc1ccccc1OC(C)C(=O)NN1C(=O)CSC1c1ccc(Cl)cc1 (configuration not stated) | 72.3 µM | > 95.5 µM | 35.3 µM | > 77.1 µM | 38.6 µM | > 100 µM | > 56.8 µM | > 100 µM | 98.9 µM | > 100 µM | – | – | –
COc1cc(C(C)O)c(S(=O)(=O)CC(C)O)nn1 (configuration not stated) | > 100 µM | > 100 µM | > 100 µM | > 100 µM | > 100 µM | > 100 µM | > 100 µM | > 100 µM | > 100 µM | > 100 µM | – | – | –
O=S(=O)(Nc1nc2ccccc2nc1Nc1ccc2ccccc2c1)c1ccccc1 | > 100 µM | 24.8 µM | > 68.9 µM | > 100 µM | 25.1 µM | > 74.5 µM | 28.8 µM | > 100 µM | > 80.1 µM | > 100 µM | – | – | –
Cc1nc(C)c(N2CCN(S(=O)(=O)N(Cc3ccccc3)Cc3ccccc3)CC2)c(=O)[nH]1 | > 75.7 µM | > 100 µM | > 100 µM | > 100 µM | > 100 µM | 38.8 µM | > 100 µM | > 100 µM | > 100 µM | 27.6 µM | – | – | –
CS(=O)(=O)OCCN(CCOS(C)(=O)=O)c1ccc(C=Nc2cccc(Cl)c2)cc1 | 13.8 µM | > 100 µM | 27.8 µM | > 100 µM | 33.6 µM | 98.9 µM | > 33.4 µM | > 100 µM | 53.3 µM | > 46.2 µM | – | – | –
C/C(=N\N=C(\N)SB(F)F)c1ccc2ccccc2c1 | > 100 µM | > 100 µM | > 100 µM | > 100 µM | > 100 µM | > 100 µM | > 100 µM | > 100 µM | > 100 µM | > 100 µM | – | – | –

Reference: PubChem BioAssay (NCI)
